The values below come from publication PMC3325286, “Structural and Functional Diversity of Acidic Scorpion Potassium Channel Toxins” (PLoS ONE, 2012).

By inhibition is commonly meant the drop in the measured response relative to a control, in per cent.

Test [1] addresses T1, KCNQ1 channel (Homo sapiens, UniProt P15382+P51787).
Test [2] has as its target T1, KCNQ1 channel. Put plainly: cell-based. The note with it: for inhibition at 10 µM: HEK293, read-out: Inhibition of KCNQ1 channel current.
Test [3] relates to Kv1.x channel. The note with it: cited from earlier work.
Test [4] deals with SKCa channel. Put plainly: Patch-clamp inhibition of SKCa channel current in transfected HEK293 cells. It counts as cell-based. The settings on record: 1 µM concentration; n>3.
The test system of test [5] is BKCa channel. In words: Patch-clamp inhibition of BKCa channel current in transfected HEK293 cells. It counts as cell-based. The note with it: 1 µM concentration; n>3. For orientation: The patch-clamp technique gives a direct electrical read-out from membranes.
Test [6] concerns Kv1.2 channel. Put plainly: Patch-clamp inhibition of Kv1.2 channel current in transfected HEK293 cells. The note with it: 1 µM ImKTx104 (Fig. S2); n>3. It counts as cell-based.
Test [7] deals with Kv1.1 channel. Put plainly: Patch-clamp inhibition of Kv1.1 channel current in transfected HEK293 cells. The test is classed as cell-based. The note with it: 1 µM ImKTx104 (Fig. S2); n>3.
Test [8] deals with Kv1.3 channel. In words: Patch-clamp inhibition of Kv1.3 channel current in transfected HEK293 cells. The test is classed as cell-based.
The test system of test [9] is TRPV1 channel. In words: Patch-clamp inhibition of TRPV1 channel current in transfected HEK293 cells. The test is classed as cell-based. The note with it: 1 µM concentration; n>3.

Like-named read-outs stand apart in the source and are kept apart here. Positions of bridges follow the written chain, without caps; N, C: chain ends. Residues, ends and D or L forms follow the SMILES beside them.

T1 sequence (P51787 whole entry, looked up): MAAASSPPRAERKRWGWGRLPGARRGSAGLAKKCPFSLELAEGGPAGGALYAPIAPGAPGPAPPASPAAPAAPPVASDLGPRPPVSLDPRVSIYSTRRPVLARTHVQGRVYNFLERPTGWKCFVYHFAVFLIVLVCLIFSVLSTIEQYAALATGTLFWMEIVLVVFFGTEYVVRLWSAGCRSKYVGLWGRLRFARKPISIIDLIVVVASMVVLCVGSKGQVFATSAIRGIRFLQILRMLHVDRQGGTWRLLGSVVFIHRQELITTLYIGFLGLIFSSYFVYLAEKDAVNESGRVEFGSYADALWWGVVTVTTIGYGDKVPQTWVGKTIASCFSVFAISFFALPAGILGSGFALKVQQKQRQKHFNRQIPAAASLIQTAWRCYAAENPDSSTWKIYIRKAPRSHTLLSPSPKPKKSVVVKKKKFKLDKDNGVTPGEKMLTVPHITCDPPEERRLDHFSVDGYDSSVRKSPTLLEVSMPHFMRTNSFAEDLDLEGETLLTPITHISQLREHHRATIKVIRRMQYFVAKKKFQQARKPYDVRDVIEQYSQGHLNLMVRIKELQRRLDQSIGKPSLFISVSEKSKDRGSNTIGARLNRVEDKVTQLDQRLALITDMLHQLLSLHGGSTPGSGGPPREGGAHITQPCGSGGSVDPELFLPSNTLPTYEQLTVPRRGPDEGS

For `CC[C@H](C)[C@@H]1NC(=O)[C@H](C(C)C)NC(=O)[C@@H]2CSSC[C@@H]3NC(=O)[C@H](CCCCN)NC(=O)[C@H](CCC(N)=O)NC(=O)[C@@H]4CCCN4C(=O)CNC(=O)[C@H](CC(=O)O)NC(=O)[C@H](CSSC[C@H](NC(=O)[C@H](CO)NC(=O)[C@H](CCC(=O)O)NC(=O)[C@H](CCCCN)NC(=O)[C@@H]4CCCN4C(=O)[C@H](CCC(=O)O)NC(=O)[C@H](CCC(=O)O)NC(=O)[C@@H](N)CC(=O)O)C(=O)N[C@@H](CO)C(=O)N[C@@H](CC(=O)O)C(=O)N[C@@H](CCC(=O)O)C(=O)N[C@@H](CCSC)C(=O)N2)NC(=O)[C@H](C(C)C)NC(=O)CNC(=O)[C@H]([C@@H](C)O)NC(=O)[C@H](CO)NC(=O)[C@H](Cc2ccc(O)cc2)NC(=O)[C@H](CCC(=O)O)NC(=O)[C@H](CCC(=O)O)NC(=O)CNC(=O)[C@H](CCCCN)NC(=O)[C@H](CSSC[C@@H](C(=O)N[C@@H](CO)C(=O)N[C@@H](CC(=O)O)C(=O)O)NC(=O)[C@H](CCCCN)NC3=O)NC(=O)[C@H](Cc2ccc(O)cc2)NC1=O` [PbTx1, reference compound] (H-DEEPKESCSDEMCVIYCKGEEYSTGVCDGPQKCKCSD-OH; disulfide 8-27, 13-33, 17-35), in test [1], the “Effect on KCNQ1 channel (in words)” value was “only weak inhibitors”. In addition, in [2], the inhibition at 10 µM was determined as 21.4%. For the same compound, the “Block of Kv1.x channel (in words)” value in test [3] is reported as “low activity (micromolar range)”.

For the compound `CC[C@H](C)[C@@H]1NC(=O)[C@H]([C@@H](C)O)NC(=O)[C@H](CC(=O)O)NC(=O)[C@H](Cc2ccc(O)cc2)NC(=O)[C@@H]2CSSC[C@@H](C(=O)N[C@@H](CCSC)C(=O)O)NC(=O)[C@H](CCCCN)NC(=O)[C@@H]3CSSC[C@H](NC(=O)[C@H](CC(=O)O)NC(=O)[C@H](CCC(=O)O)NC(=O)[C@H](Cc4c[nH]cn4)NC(=O)[C@H]([C@@H](C)O)NC(=O)[C@H](C(C)C)NC(=O)[C@@H](NC(=O)[C@H](C)N)CSSC[C@H](NC(=O)[C@H]([C@@H](C)O)NC(=O)CNC1=O)C(=O)N[C@@H](C(C)C)C(=O)N[C@@H](CC(=O)O)C(=O)NCC(=O)N[C@@H](CCCCN)C(=O)N3)C(=O)N[C@@H]([C@@H](C)O)C(=O)N[C@@H](CC(C)C)C(=O)N[C@@H](CC(C)C)C(=O)N2` [ImKTx104] (H-ACVTHEDCTLLCYDTIGTCVDGKCKCM-OH; disulfide 2-19, 8-24, 12-26), in [1] (10 µM concentration), the “Effect on KCNQ1 channel (in words)” value is listed as “effectively blocked”. In test [1] (measured at 10 µM), the “τoff (time constant of washing off process), KCNQ1 channel current” value was found to be 11.73 s and the “τon (time constant of binding process), KCNQ1 channel current” value was determined as 81.32 s. The “Effect on SKCa channel (in words)” value in test [4] is recorded as “negligible effects”. Also, the inhibition at 10 µM in [2] is 41.7%. Besides, the inhibition at 1 µM in test [2] (HEK293, read-out: Inhibition of KCNQ1 channel current, ImKTx104 and mutants) stood at 27.5%. Moreover, the “Effect on BKCa channel (in words)” value in test [5] is on record as “negligible effects”. The “Effect on Kv1.2 channel (in words)” value in [6] is “no effect”. The “Effect on Kv1.1 channel (in words)” value in test [7] is “no effect”. Moreover, the “Effect on Kv1.3 channel (in words)” value in test [8] is given as “minor effect”. Moreover, the “Effect on TRPV1 channel (in words)” value in test [9] is given as “negligible effects”.
